Reference: patent USRE45272E1, “β-glucuronide-linker drug conjugates” (priority 2005, dated 2014)
Counter-ions that a name gives are not always drawn. Like-named read-outs stand apart in the source and are kept apart here. Blank lines part the entries; values can stand above or below the compound they belong to. Square brackets hold non-standard residues; d marks the D form. Peptide text beside a SMILES is read from it. * marks the point of attachment. Dolaproine = CO[C@@H]([C@@H]1CCCN1)[C@@H](C)C(=O)O; Dil = CC[C@H](C)[C@H](NC)[C@@H](CC(=O)O)OC; X1 = C[C@@H](N*)[C@@H](O)c1ccccc1; NMeV = CN[C@H](C(=O)O)C(C)C

Tests used:
Format in all cases: cell-based
[1] = test system: Caki-1, 786-O and Karpas 299 cell lines; experiment: In vitro cytotoxicity, statements across Caki-1, 786-O and Karpas 299; details: for IC50: read-out: IC50 on Caki-1, 786-O and Karpas 299 (all lines)
Procedure: (§1) In vitro growth inhibition. Cells were collected and plated in 96 well black-sided plates at a density of 10,000 cells/well in 150 μL of medium. Serial dilutions of the ADC (50 μL) were added, and incubation was carried out for 92 h at 37° C. After addition of ADC, cultures were incubated to 96 h at 37° C. Resazurin (0.25 mM, 50 μL, Sigma, St. Louis, Mo.) in medium was added and incubation was continued for 4 h. The plates were read on a Fusion HT microplate reader (Packard, Meriden, Conn.) using an excitation wavelength of 525 nm and an emission wavelength of 590 nm. Data from all assays were reduced using GraphPad Prism Version 4 for Windows (GraphPad Software, San Diego, Calif.). The IC50 concentrations compared to untreated control cells were determined using a 4 parameter curve fits.
Results. […] The negative charge associated with the carboxylate group of 1b leads to reduced cytotoxic activity, presumably due to impaired intracellular access.
The ADCs of 9b effectively delivered 1b to the targeted cells. […] Conjugates of doxorubicin drug-linker 17 gave the same general profile with effective cell kill on antigen positive cell lines and specificity values >16-fold.

[2] = test system: Caki-1 (CD70+, CD30−) renal cell carcinoma cells; experiment: In vitro growth inhibition (resazurin), Caki-1
Procedure: as §1

[3] = test system: 786-O (CD70+, CD30−) renal cell carcinoma cells; experiment: In vitro growth inhibition (resazurin), 786-O
Procedure: as §1

[4] = test system: Karpas 299 (CD30+, CD70−) ALCL cells; experiment: In vitro growth inhibition (resazurin), Karpas 299
Procedure: as §1

[5] = 96 h exposure, resazurin metabolism, vs untreated cells, drug content, read-out: Caki-1 (CD70+, CD30−) IC50 drug
[6] = 96 h exposure, resazurin metabolism, vs untreated cells, drug content, read-out: 786-O (CD70+, CD30−) IC50 drug
[7] = 96 h exposure, resazurin metabolism, vs untreated cells, drug content, read-out: Karpas 299 (CD30+, CD70−) IC50 drug

SMILES: CC[C@H](C)[C@@H]([C@@H](CC(=O)N1CCC[C@H]1[C@H](OC)[C@@H](C)C(=O)N[C@@H](Cc1ccccc1)C(=O)O)OC)N(C)C(=O)[C@@H](NC(=O)[C@@H](NC)C(C)C)C(C)C [Compound 1b, N-methylvaline-valine-dolaisoleuine-dolaproine-phenylalanine] (HELM PEPTIDE1{[meV].V.[CC[C@H](C)[C@@H]([C@@H](CC(=O)[*:2])OC)N(C)[*:1]].[CO[C@H]([C@@H](C)C(=O)[*:2])[C@@H]1CCCN1[*:1]].F}$$$$V2.0)
IC50 ([1]; statement for all three cell lines): 100 to 200 nM
IC50 [2, 5]: 270 nM
IC50 [3, 6]: 300 nM
IC50 [4, 7]: 100 nM

SMILES: COc1cccc2c1C(=O)c1c(O)c3c(c(O)c1C2=O)C[C@@](O)(C(=O)CO)CC3OC1CC(NCCCC(OC(C)=O)OC(C)=O)C(O)C(C)O1 (stereo partly drawn) [Compound 18]
fold more cytotoxic than doxorubicin (15) ([1]; across Caki-1, 786-O, Karpas 299): 300-6500 fold
IC50 [1]: < 0.2 nM
IC50 ([2]; Homo sapiens, CAKI-1, 96 h, read-out: Caki-1 (CD70+, CD30−) IC50 drug nM): 0.04 nM
IC50 ([3]; Homo sapiens, 786-0, 96 h, read-out: 786-O (CD70+, CD30−) IC50 drug nM): 0.01 nM
IC50 ([4]; Homo sapiens, KARPAS-299, 96 h, read-out: Karpas 299 (CD30+, CD70−) IC50 drug nM): 0.1 nM

IC50 ([2]; Homo sapiens, CAKI-1, 96 h exposure, resazurin metabolism, vs untreated cells, drug content, read-out: Caki-1 (CD70+, CD30−) IC50 drug): 110 nM
IC50 ([3]; Homo sapiens, 786-0, 96 h exposure, resazurin metabolism, vs untreated cells, drug content, read-out: 786-O (CD70+, CD30−) IC50 drug): 65 nM
IC50 ([4]; Homo sapiens, KARPAS-299, 96 h exposure, resazurin metabolism, vs untreated cells, drug content, read-out: Karpas 299 (CD30+, CD70−) IC50 drug): 29 nM
SMILES: COc1cccc2c1C(=O)c1c(O)c3c(c(O)c1C2=O)C[C@@](O)(C(=O)CO)C[C@@H]3O[C@H]1C[C@H](N)[C@H](O)[C@H](C)O1 [Compound 15, doxorubicin-HCl]

SMILES: CC[C@H](C)[C@@H]([C@@H](CC(=O)N1CCC[C@H]1[C@H](OC)[C@@H](C)C(=O)N[C@H](C)[C@@H](O)c1ccccc1)OC)N(C)C(=O)[C@@H](NC(=O)[C@@H](NC)C(C)C)C(C)C [Compound 1a, monomethyl auristatin E] (H-[NMeV]V[Dil][Dolaproine]-X1)
IC50 [2, 5]: 0.11 nM
IC50 [3, 6]: 0.19 nM
IC50 [4, 7]: 0.09 nM
